Test results taken from PubChem BioAssay (NCI).
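Values below derive from 48-hour exposures of cells grown in 96-well plates, with endpoints linearly interpolated between the two concentrations bracketing the appropriate inhibition level. TGI: total growth inhibition.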

Legend:
Assay in all cases: NCI-60 cell line screen, 48 h
[1] = tested on: 786-0 renal
[2] = tested on: A498 renal
[3] = tested on: A549 NSCLC
[4] = tested on: ACHN renal
[5] = tested on: CAKI-1 renal
[6] = tested on: CCRF-CEM leukemia
[7] = tested on: COLO 205 colon
[8] = tested on: DLD-1 colon
[9] = tested on: DMS 114 small cell lung
[10] = tested on: DMS 273 small cell lung
[11] = tested on: EKVX NSCLC
[12] = tested on: HCC-2998 colon
[13] = tested on: HCT-116 colon
[14] = tested on: HCT-15 colon
[15] = tested on: HL-60(TB) leukemia
[16] = tested on: HOP-18 NSCLC
[17] = tested on: HOP-62 NSCLC
[18] = tested on: HOP-92 NSCLC
[19] = tested on: HT29 colon
[20] = tested on: IGROV1 ovarian
[21] = tested on: K-562 leukemia
[22] = tested on: KM12 colon
[23] = tested on: KM20L2 colon
[24] = tested on: LOX IMVI melanoma
[25] = tested on: LXFL 529 NSCLC
[26] = tested on: M14 melanoma
[27] = tested on: M19-MEL melanoma
[28] = tested on: MALME-3M melanoma
[29] = tested on: MOLT-4 leukemia
[30] = tested on: NCI-H226 lung
[31] = tested on: NCI-H23 lung
[32] = tested on: NCI-H460 lung
[33] = tested on: NCI-H522 lung
[34] = tested on: OVCAR-3 ovarian
[35] = tested on: OVCAR-4 ovarian
[36] = tested on: OVCAR-5 ovarian
[37] = tested on: OVCAR-8 ovarian
[38] = tested on: RPMI-8226 leukemia
[39] = tested on: RXF 393 renal
[40] = tested on: RXF-631 renal
[41] = tested on: SF-268 CNS
[42] = tested on: SF-295 CNS
[43] = tested on: SF-539 CNS
[44] = tested on: SK-MEL-2 melanoma
[45] = tested on: SK-MEL-28 melanoma
[46] = tested on: SK-MEL-5 melanoma
[47] = tested on: SK-OV-3 ovarian
[48] = tested on: SN12C renal
[49] = tested on: SNB-19 CNS
[50] = tested on: SNB-75 CNS
[51] = tested on: SNB-78 CNS
[52] = tested on: SW-620 colon
[53] = tested on: TK-10 renal
[54] = tested on: U251 CNS
[55] = tested on: UACC-257 melanoma
[56] = tested on: UACC-62 melanoma
[57] = tested on: UO-31 renal
[58] = tested on: XF 498 CNS
[59] = tested on: SR leukemia

Structure (SMILES): COc1cc([C@@H]2c3cc4c(cc3[C@@H](NC(=O)c3ccc(C(C)=O)cc3)C3COC(=O)[C@@H]32)OCO4)cc(OC)c1O (stereo partly specified)
- TGI [1]: 1.81 µM
- TGI [2]: 5.87 µM
- TGI [3]: 2.41 µM
- TGI [4]: 1.75 µM
- TGI [5]: 20.3 µM
- TGI [6]: > 100 µM
- TGI [7]: 19.5 µM
- TGI [8]: 17.7 µM
- TGI [9]: 4.74 µM
- TGI [10]: 7.62 µM
- TGI [11]: 17.6 µM
- TGI [12]: 7.91 µM
- TGI [13]: 5.03 µM
- TGI [14]: 17.3 µM
- TGI [15]: 0.912 µM
- TGI [16]: > 100 µM
- TGI [17]: 1.35 µM
- TGI [18]: 27 µM
- TGI [19]: 6.34 µM
- TGI [20]: 5.71 µM
- TGI [21]: > 100 µM
- TGI [22]: 5.68 µM
- TGI [23]: 8.05 µM
- TGI [24]: 4.68 µM
- TGI [25]: > 100 µM
- TGI [26]: 31.1 µM
- TGI [27]: 25.5 µM
- TGI [28]: 3.33 µM
- TGI [29]: 29.9 µM
- TGI [30]: 1.93 µM
- TGI [31]: 1.41 µM
- TGI [32]: 1.53 µM
- TGI [33]: 3.89 µM
- TGI [34]: 7.61 µM
- TGI [35]: > 100 µM
- TGI [36]: 7.69 µM
- TGI [37]: 13.7 µM
- TGI [38]: 14.5 µM
- TGI [39]: 72.1 µM
- TGI [40]: 10.6 µM
- TGI [41]: > 100 µM
- TGI [42]: > 100 µM
- TGI [43]: 1.89 µM
- TGI [44]: 8.03 µM
- TGI [45]: 33.6 µM
- TGI [46]: 10.3 µM
- TGI [47]: 9.46 µM
- TGI [48]: 2.03 µM
- TGI [49]: > 100 µM
- TGI [50]: 4.99 µM
- TGI [51]: 85 µM
- TGI [52]: 12.3 µM
- TGI [53]: 21.8 µM
- TGI [54]: 1.65 µM
- TGI [55]: 32.2 µM
- TGI [56]: 2.1 µM
- TGI [57]: 17.6 µM
- TGI [58]: 5.7 µM

Structure (SMILES): COC(=O)/C=C\C1C(C(=O)OC)C2(C(=O)OC)CCC1(C(=O)OC)N2 (stereo unspecified)
- TGI [1]: 28.6 µM
- TGI [2]: 32.9 µM
- TGI [3]: 39.9 µM
- TGI [4]: 22.7 µM
- TGI [5]: 6.82 µM
- TGI [6]: 21.8 µM
- TGI [7]: 13.5 µM
- TGI [8]: 12.4 µM
- TGI [10]: 33.9 µM
- TGI [11]: > 60.2 µM
- TGI [12]: 31.2 µM
- TGI [13]: 27.6 µM
- TGI [14]: 11.2 µM
- TGI [15]: 6.47 µM
- TGI [16]: 28.9 µM
- TGI [17]: 34.1 µM
- TGI [18]: 19.6 µM
- TGI [19]: 45.7 µM
- TGI [20]: > 58.1 µM
- TGI [21]: 53.2 µM
- TGI [22]: 36.7 µM
- TGI [23]: > 61.8 µM
- TGI [24]: 29 µM
- TGI [25]: 19.3 µM
- TGI [26]: 28.8 µM
- TGI [27]: 27.9 µM
- TGI [28]: 15.8 µM
- TGI [29]: 14.7 µM
- TGI [30]: 36.6 µM
- TGI [31]: 36.4 µM
- TGI [32]: 42.5 µM
- TGI [33]: 1.76 µM
- TGI [34]: 28.7 µM
- TGI [35]: 34.5 µM
- TGI [36]: 34.5 µM
- TGI [37]: 19 µM
- TGI [38]: 26.4 µM
- TGI [39]: 19.7 µM
- TGI [40]: 48.7 µM
- TGI [41]: 44.5 µM
- TGI [42]: 44.8 µM
- TGI [43]: 32 µM
- TGI [44]: 30 µM
- TGI [45]: 26.4 µM
- TGI [46]: 34.1 µM
- TGI [47]: 31.9 µM
- TGI [48]: 29.9 µM
- TGI [49]: 23.8 µM
- TGI [50]: 32.9 µM
- TGI [51]: 35.9 µM
- TGI [59]: 16.7 µM
- TGI [52]: 9.38 µM
- TGI [53]: 15 µM
- TGI [54]: 32.7 µM
- TGI [55]: 19.2 µM
- TGI [56]: 29.8 µM
- TGI [57]: 30.8 µM
- TGI [58]: 34.3 µM
